Measured values taken from ChEMBL document CHEMBL1156829 (Proc Natl Acad Sci U S A, 2008).

Experiments:
Plasmodium falciparum [1] = assay: NOVARTIS: Inhibition of Plasmodium falciparum W2 (drug-resistant) proliferation in erythrocyte-based infection assay; format: functional, organism-based; details: Plasmodium falciparum, W2; read-out: EC50
[2] = NOVARTIS: Cytotoxicity against human hepatocellular carcinoma cell line (Huh7); format: toxicity, cell-based, Huh-7; details: Huh7 cells (hepatocellular carcinoma cell line)
Plasmodium falciparum [3] = assay: NOVARTIS: Inhibition of Plasmodium falciparum 3D7 (drug-susceptible) proliferation in erythrocyte-based infection assay; format: functional, organism-based; details: Plasmodium falciparum, 3D7

Compound	EC50 (Plasmodium falciparum [1]) [µM]	CC50 [2] [µM]	EC50 (Plasmodium falciparum [3]) [µM]
O=C(NNc1nc(-c2cc3ccccc3oc2=O)cs1)c1ccccc1	> 0.981	> 10	> 1.25
COCCCNC(=O)c1cc(NC(=O)CCCCl)ccc1N1CCc2ccccc2C1	0.0304	1.13	0.331
COc1ccc(OC)c(-c2ccc(O)c(CNCCc3ccccc3)c2)c1	0.0771	> 10	0.657
CC(C)CNC(=O)c1cnc(NCCCN2CCCCC2C)nc1Nc1ccccc1 (configuration not stated)	> 1.25	> 10	1.15
COc1cccc(/C=C2/SC(=Nc3ccccc3)NC2=O)c1OC	> 1.25	> 10	> 1.15
Cc1ccc(NC2=C(c3ccc(C(F)(F)F)cc3)C(=O)c3ccccc32)cc1F	0.79	> 100	0.541
CCC(C)(C)c1ccc(OCCCC[n+]2ccc(C)cc2)c(C(C)(C)CC)c1	0.193	12	0.532
COCCNC(=S)N(Cc1ccc(F)cc1)Cc1cc2ccc(C)c(C)c2[nH]c1=O	0.0642	> 10	0.412
O=C1c2cccc3cccc(c23)C(=O)N1c1ccc(-c2c3ccccc3c(-c3ccc(N4C(=O)c5cccc6cccc(c56)C4=O)cc3)c3ccccc23)cc1	1	> 10	1.05
CC(=O)NC(CO)C(O)c1ccc([N+](=O)[O-])cc1 (configuration not stated)	2.05	> 100	> 9.72
CCOc1ccc2nc3cc(NC(=O)c4ccc(C)cc4)ccc3c(N)c2c1	0.997	> 10	> 1.19
C[N+](C)(CC#Cc1ccccc1)CC#Cc1ccccc1	0.679	> 100	1.93
Nc1c(Cl)c(Cl)nc(C(Cl)(Cl)Cl)c1Cl	0.286	> 100	0.448
CC(NS(=O)(=O)c1ccccc1)C(c1cccs1)N1CCN(c2ccccc2F)CC1 (configuration not stated)	6.35	> 100	> 12.5
COc1ccc(C2c3[nH]c4ccccc4c3C[C@@H]3C(=O)N(CCC(C)C)CC(=O)N23)cc1 (some centres not stated)	1.11	> 10	> 1.25
c1ccc(/C2=N/c3ccccc3/N=C(/c3ccccc3)c3ccccc32)cc1	0.77	> 100	0.678
CCOC(=O)c1c(NC(=O)CCC(=O)OC)sc2c1CC(C)(C)SC2	> 1.11	> 10	> 0.65

Compound	EC50 (Plasmodium falciparum [1]) [µM]	CC50 [2] [µM]	EC50 (Plasmodium falciparum [3]) [µM]
CC(C)CNC(=O)c1cnc(NCCCN(C)C)nc1NCC1CCCCC1	0.815	> 10	0.334
COc1ccc(C2=C(c3ccc(OC)cc3)C3(c4ccccc4)C(=O)C2(c2ccccc2)C2C(=O)N(c4cc(Cl)ccc4C)C(=O)C23)cc1 (configuration not stated)	0.346	> 100	0.447
CCc1nc2nc(C)cc(Nc3ccc4c(c3)OCCO4)n2n1	0.219	> 100	0.36
O=c1[nH]nc(SCc2c(F)cccc2[N+](=O)[O-])c(=O)[nH]1	> 0.695	> 10	> 1.25
CCCCCCc1ccc(C(=O)Oc2ccccc2-c2nc3cc(C)ccn3c2NC(C)(C)CC(C)(C)C)cc1	0.162	> 13.8	0.813
Cc1cccc(CN2CCC(CNC(=S)Nc3ccc4nc(N5CCN(C)CC5)cc(C)c4c3)CC2)c1	6.76	> 100	> 9.9
CCOc1ccc2c(c1)cc(CN(C(C)=O)C1CCCC1)c1nnnn12	0.268	> 10	> 1.25
CCOc1ccc(C(=O)C(C)[n+]2cc(-c3ccc(OC)cc3)n3c2CCC3)cc1 (configuration not stated)	0.595	33.2	0.506
CN(C)CCNc1ncnc2c1[nH]c1ccc(Cl)cc12	0.886	20.4	0.632
O=C(NC(=S)Nc1ccc(NC(=O)c2cccs2)cc1)c1ccco1	0.311	> 100	0.468
CCCCCC(=O)Oc1ccccc1-c1nc2cc(C)ccn2c1NC(C)(C)CC(C)(C)C	0.0448	> 10	0.703
Clc1ccccc1CN1CCc2nc(N3CCCCC3)sc2C1	2.63	> 100	0.594
COc1ccc2nc(-c3ccccc3)cc(O)c2c1	0.314	0.835	0.411
Cc1ccc(Nc2cc(C)nc(NCc3ccccc3)n2)cc1	0.132	10.5	0.112
O=C1CC(c2ccccc2)CC2=C1C(c1ccccc1[N+](=O)[O-])Nc1ccccc1N2 (configuration not stated)	1.11	> 100	3.47
c1ccc(-c2cc(NCc3ccco3)nc(-c3ccccn3)n2)nc1	0.0914	> 10	0.182
COc1cccc(-n2sc3c(c2=S)-c2cc(OC)ccc2NC3(C)C)c1	1.48	> 10	> 0.991
